# Results published in the supplement of paper PMC10477900.
# Structures can show the parent of a compound that is named as a salt.
# Legend:
# HCT116 [1] = settings: 72 h
# Description: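 HCT116 control and MTA1-KO (CRISPR) HCT116 cells were seeded in 384-well plates (800 cells/well), treated 16 h later with 237 metabolism-related anticancer drugs at five doses (10 uM, 2 uM, 400 nM, 80 nM, 16 nM) for 72 h, two replicates; viability by CCK8. Values are % inhibition of viability relative to untreated cells, plus fitted IC50.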
# HCT116 [2] = test: viability inhibition vs untreated; higher = more cytotoxic; settings: 72 h
Compound,IC50 (HCT116 [1]; genotype: MTA1-KO) [µM],IC50 (HCT116 [1]; genotype: control) [µM],"viability inhibition (HCT116 [2]; genotype: MTA1-KO, 16 nM) [%]","viability inhibition (HCT116 [2]; genotype: MTA1-KO, 80 nM) [%]","viability inhibition (HCT116 [2]; genotype: MTA1-KO, 400 nM) [%]","viability inhibition (HCT116 [2]; genotype: MTA1-KO, 2000 nM) [%]","viability inhibition (HCT116 [2]; genotype: MTA1-KO, 10000 nM) [%]","viability inhibition (HCT116 [2]; genotype: control, 16 nM) [%]","viability inhibition (HCT116 [2]; genotype: control, 80 nM) [%]","viability inhibition (HCT116 [2]; genotype: control, 400 nM) [%]","viability inhibition (HCT116 [2]; genotype: control, 2000 nM) [%]","viability inhibition (HCT116 [2]; genotype: control, 10000 nM) [%]"
O=C(Cc1cccc(OC(F)(F)F)c1)Nc1ccc(CCCCc2nnc(NC(=O)Cc3ccccn3)s2)nn1 [CB839],> 10,> 10,-4.17,2.28,-14.1,1.81,3.54,0.501,13.6,24,20.5,20.2
O=c1cc(O)c(Cl)c[nH]1 [Gimeracil],> 10,> 10,-16.5,-10.4,-7.69,-8.52,5.58,-1.24,-1.82,-11.8,-5.96,-7.24
CC(=O)O[C@H]1[C@H]2O[C@]23[C@@H]2CC[C@@H]4C[C@@H](O)CC[C@]4(C)[C@H]2CC[C@]3(C)[C@H]1c1ccc(=O)oc1 [Cinobufagin],< 0.016,0.0795,51.8,51.6,84.4,88.9,92.1,19.9,58.1,96.5,96.5,94.8
Cc1ccccc1C(=O)N1CCc2cc(-c3nc(NC(=O)Cc4ccc5c(c4)OCO5)sc3C)ccc21 [ML385],> 10,> 10,4.66,-3.65,-2.81,0.224,49.3,3.74,-1.5,2.66,-0.526,29.4
NS(=O)(=O)NCCNc1nonc1C(=Nc1ccc(F)c(Br)c1)NO [Epacadostat],> 10,> 10,17.9,-8.61,-7.79,-6.79,6.59,-9.21,-6.3,-14.3,-5.67,-5.46
O=C1c2cccc(O)c2C(=O)c2c(O)cccc21 [Antrapurol],> 10,> 10,7.43,-5.62,-8.24,-0.432,0.85,1.11,-7.37,-11.3,-10.5,29.6
CO[C@H]1C[C@@H]2CC[C@@H](C)[C@@](O)(O2)C(=O)C(=O)N2CCCC[C@H]2C(=O)O[C@H]([C@H](C)C[C@@H]2CC[C@H](n3cnnn3)[C@H](OC)C2)CC(=O)[C@H](C)/C=C(\C)[C@@H](O)[C@@H](OC)C(=O)[C@H](C)C[C@H](C)/C=C/C=C/C=C/1C [Zotarolimus],2.07,> 10,5.1,-1.86,2.56,34.7,69.3,-4.9,-11.3,-9.38,-17.6,9.36
O=C(Oc1ccc([N+](=O)[O-])cc1)N1CCC(C(O)(c2ccc3c(c2)OCO3)c2ccc3c(c2)OCO3)CC1 [JZL184],5.53,> 10,6.97,15.2,21.9,37.7,62.3,9.18,-4.77,-6.67,-12.4,2.68
O=C(O)CCCCC(CCSCc1ccccc1)SCc1ccccc1 (stereo unspecified) [CPI613],> 10,> 10,-15.7,-15.1,-22.2,-25.4,-7.62,7.59,-3.09,-6.23,-6.02,8.56
CC(C)(C)c1cc(O)ccc1O [TBHQ],> 10,> 10,-1.6,-25.5,-23.4,-13.4,41.7,16.6,25.3,20.9,17.7,17
Cc1nc2ccc(CN(C)c3ccc(C(=O)N[C@@H](CCC(=O)O)C(=O)O)s3)cc2c(=O)[nH]1 [Raltitrexed],0.0857,> 10,-4.56,33.6,75.8,81.5,82.6,-7.91,-17.2,24.9,13,-5.41
NCc1ccc(S(N)(=O)=O)cc1 [Mafenide hydrochloride],> 10,> 10,-13,-12.9,-16.5,-13.4,-15.9,-4.74,6.87,-2.33,-2.58,-6.77
N[C@@H](CCC(=O)N[C@@H](CS)C(=O)NCC(=O)O)C(=O)O [Glutathione],> 10,> 10,-21.2,-27.6,-21.1,-16.6,-21.7,8.47,0.941,-7.27,8.72,5.08
COC1CCC(N2C(=O)CNc3ncc(-c4ccc(C(C)(C)O)nc4)nc32)CC1 (stereo unspecified) [CC223],> 10,> 10,-8.46,-17.5,-1.64,13.1,22.1,11.3,-6.69,-3.2,-6.07,35.3
Cc1ccc2c(c1)C(=O)[C@]1(O)CCN(c3ccccc3)C1=N2 [(-)-Blebbistatin],> 10,> 10,2.62,-5.47,-2.06,-3.88,-5.36,-9,-4.56,-13.5,-18.9,-8.68
Cc1ccc(-c2cn3c4c(sc3n2)CCCC4)cc1 [Pifithrin-β hydrobromide],> 10,> 10,-6.36,-17.5,-18.2,-13.4,33,-6.38,-10.8,-7.66,2.45,-13.6
CN(Cc1ccccc1)c1ccc2cc(C(=O)O)c(=O)oc2c1 [7ACC2],> 10,0.373,-27.3,-0.988,20.9,24.6,29,15,-0.73,50.7,64.6,80.8
Nc1ccc(S(N)(=O)=O)cc1 [Sulfanilamide],> 10,> 10,-4.56,-14.5,-27.6,-20.9,-19.4,-9.12,-7.95,-13.7,-13.7,-7.82
